Reference: the supplement of paper PMC10307832

Tests used:
Assay in all cases: relative viability (nuclei count vs DMSO), 5 days (fraction); higher = more cells survive
Carboplatin + Pemetrexed = compound: C1CC(C1)(C(=O)O)C(=O)O.[NH2-].[NH2-].[Pt+2] [Carboplatin] + Nc1nc2[nH]cc(CCc3ccc(C(=O)N[C@@H](CCC(=O)O)C(=O)O)cc3)c2c(=O)[nH]1 [Pemetrexed] (partner 0.2 µM)
In short: (§1)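 Relative viability is defined as nuclei in treated wells over nuclei in vehicle wells. Duplicate plates were run and medians reported. Lung cancer cell lines in 1536-well plates were dosed by pin tool one day after seeding, with one drug or with a fixed anchor-drug dose plus five library-drug doses (not always all listed) in √10 steps, and nuclei were counted after 5 days.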

Carboplatin + Vorinostat = compound: C1CC(C1)(C(=O)O)C(=O)O.[NH2-].[NH2-].[Pt+2] [Carboplatin] + O=C(CCCCCCC(=O)Nc1ccccc1)NO [Vorinostat] (partner 1 µM)
In short: as §1

Carboplatin + OSI-027 = compound: C1CC(C1)(C(=O)O)C(=O)O.[NH2-].[NH2-].[Pt+2] [Carboplatin] + COc1cccc2cc(-c3nc([C@H]4CC[C@H](C(=O)O)CC4)n4ncnc(N)c34)[nH]c12 [OSI-027] (partner 0.5 µM)
In short: as §1

GSK126 + Pictilisib = compound: CC[C@H](C)N1C=C(C2=C(C=C(C=C21)C3=CN=C(C=C3)N4CCNCC4)C(=O)NCC5=C(C=C(NC5=O)C)C)C [GSK126] + CS(=O)(=O)N1CCN(Cc2cc3nc(-c4cccc5[nH]ncc45)nc(N4CCOCC4)c3s2)CC1 [Pictilisib] (partner 1 µM)
In short: as §1

Row | Cell Line | relative viability (Carboplatin + Pemetrexed; first compound 0.08 µM) | relative viability (Carboplatin + Pemetrexed; first compound 0.253 µM) | relative viability (Carboplatin + Pemetrexed; first compound 0.8 µM) | relative viability (Carboplatin + Pemetrexed; first compound 2.53 µM) | relative viability (Carboplatin + Pemetrexed; first compound 8 µM) | relative viability (Carboplatin + Vorinostat; first compound 0.08 µM) | relative viability (Carboplatin + Vorinostat; first compound 0.253 µM) | relative viability (Carboplatin + Vorinostat; first compound 0.8 µM) | relative viability (Carboplatin + Vorinostat; first compound 2.53 µM) | relative viability (Carboplatin + Vorinostat; first compound 8 µM) | relative viability (Carboplatin + OSI-027; first compound 0.08 µM) | relative viability (Carboplatin + OSI-027; first compound 0.253 µM) | relative viability (Carboplatin + OSI-027; first compound 0.8 µM) | relative viability (Carboplatin + OSI-027; first compound 2.53 µM) | relative viability (Carboplatin + OSI-027; first compound 8 µM) | relative viability (GSK126 + Pictilisib; first compound 0.08 µM) | relative viability (GSK126 + Pictilisib; first compound 0.253 µM) | relative viability (GSK126 + Pictilisib; first compound 0.8 µM) | relative viability (GSK126 + Pictilisib; first compound 2.53 µM) | relative viability (GSK126 + Pictilisib; first compound 8 µM)
1 | NCI-H2347 | 0.432 | 0.452 | 0.403 | 0.407 | 0.525 | 0.555 | 0.586 | 0.646 | 0.595 | 0.526 | 0.42 | 0.421 | 0.409 | 0.423 | 0.324 | 0.602 | 0.661 | 0.567 | 0.511 | 0.616
2 | NCI-H2405 | 1.16 | 1.03 | 1.05 | 0.977 | 0.737 | 1.19 | 0.983 | 1.12 | 1.11 | 0.767 | 0.683 | 0.624 | 0.624 | 0.642 | 0.56 | 0.427 | 0.385 | 0.437 | 0.452 | 0.397
3 | NCI-H3122 | 0.198 | 0.202 | 0.189 | 0.191 | 0.183 | 0.874 | 0.729 | 0.99 | 1.06 | 1 | 0.985 | 1.24 | 0.828 | 0.732 | 0.752 | 0.61 | 0.597 | 0.595 | 0.684 | 0.703
4 | PC-3 [JPC-3] | 1.28 | 0.986 | 1.02 | 0.939 | 0.889 | 1.14 | 0.799 | 0.9 | 0.765 | 0.685 | 0.88 | 0.821 | 0.754 | 0.729 | 0.588 | 0.808 | 0.795 | 0.814 | 0.781 | 0.762
5 | PC-14 | 0.127 | 0.131 | 0.143 | 0.11 | 0.0992 | 0.862 | 0.783 | 0.582 | 0.234 | 0.142 | 0.864 | 0.923 | 0.716 | 0.369 | 0.133 | 0.684 | 0.667 | 0.59 | 0.693 | 0.656
6 | RERF-LC-KJ | 0.492 | 0.475 | 0.479 | 0.458 | 0.438 | 0.797 | 0.642 | 0.735 | 0.676 | 0.505 | 0.585 | 0.639 | 0.541 | 0.464 | 0.343 | 0.551 | 0.554 | 0.589 | 0.529 | 0.55
7 | SK-LU-1 | 1.11 | 0.937 | 0.958 | 0.899 | 0.676 | 0.923 | 0.657 | 0.861 | 0.664 | 0.459 | 0.444 | 0.387 | 0.339 | 0.292 | 0.213 | 0.657 | 0.699 | 0.587 | 0.667 | 0.694
8 | SK-MES-1 | 1.04 | 0.928 | 0.92 | 0.972 | 0.843 | 1.19 | 1.06 | 1.08 | 1.01 | 0.961 | 0.684 | 0.609 | 0.699 | 0.628 | 0.553 | 0.386 | 0.322 | 0.329 | 0.357 | 0.392
9 | SW 1573 | 0.92 | 0.924 | 1.18 | 1.01 | 0.569 | 0.739 | 1.01 | 0.865 | 0.817 | 0.396 | 0.653 | 0.694 | 0.67 | 0.617 | 0.437 | 0.568 | 0.485 | 0.528 | 0.486 | 0.559
